From patent publication US20240277620A1, “MIXED SOLVENTS FOR SPRAY DRYING FOR PREPARATION OF AMORPHOUS SOLID DISPERSIONS” (Lonza Bend Inc., priority 2021, published 2024)
Where “and” joins values, the source holds several entries; their conditions need not be identical. Equal entries are not always repeated.

Experiment: Determination of saturation concentration of drug in solvent (TGA of filtered saturated solution)

## O=C(O)c1cc(/N=N/c2ccc(S(=O)(=O)Nc3ccccn3)cc2)ccc1O [Sulfasalazine, sulfasalazine]
EtOAc/MeOH, MeOH 0 wt %
  Solubility (wt %): 0.065 wt % and 0.091 wt %
EtOAc/MeOH, MeOH 15 wt %
  Solubility (wt %): 0.500 wt %
EtOAc/MeOH, MeOH 20 wt %
  Solubility (wt %): 0.430 wt %
EtOAc/MeOH, MeOH 30 wt %
  Solubility (wt %): 0.847 wt %
EtOAc/MeOH, MeOH 35 wt %
  Solubility (wt %): 0.593 wt %
EtOAc/MeOH, MeOH 45 wt %
  Solubility (wt %): 1.028 wt %
EtOAc/MeOH, MeOH 50 wt %
  Solubility (wt %): 0.497 wt %
EtOAc/MeOH, MeOH 60 wt %
  Solubility (wt %): 0.878 wt %
EtOAc/MeOH, MeOH 65 wt %
  Solubility (wt %): 0.481 wt %
EtOAc/MeOH, MeOH 80 wt %
  Solubility (wt %): 0.370 wt %
EtOAc/MeOH, MeOH 85 wt %
  Solubility (wt %): 0.532 wt %
EtOAc/MeOH, MeOH 100 wt %
  Solubility (wt %): 0.153 wt % and 0.371 wt %
EtOAc:EtOH 0:100, 25° C.
  Concentration: 1030 µg/mL
  Concentration (wt %): 0.130 wt %
EtOAc:EtOH 15:85, 25° C.
  Concentration: 1740 µg/mL
  Concentration (wt %): 0.22 wt %
EtOAc:EtOH 40:60, 25° C.
  Concentration: 2670 µg/mL
  Concentration (wt %): 0.321 wt %
EtOAc:EtOH 55:45, 25° C.
  Concentration: 2890 µg/mL
  Concentration (wt %): 0.341 wt %
EtOAc:EtOH 70:30, 25° C.
  Concentration: 3200 µg/mL
  Concentration (wt %): 0.370 wt %
EtOAc:EtOH 85:15, 25° C.
  Concentration: 2170 µg/mL
  Concentration (wt %): 0.246 wt %
EtOAc:EtOH 100:0, 25° C.
  Concentration: 360 µg/mL
  Concentration (wt %): 0.040 wt %
MeOAc/MeOH, MeOH 0 wt %
  Solubility (wt %): 0.065 wt %
MeOAc/MeOH, MeOH 20 wt %
  Solubility (wt %): 0.403 wt %
MeOAc/MeOH, MeOH 35 wt %
  Solubility (wt %): 0.482 wt %
MeOAc/MeOH, MeOH 50 wt %
  Solubility (wt %): 0.426 wt %
MeOAc/MeOH, MeOH 65 wt %
  Solubility (wt %): 0.341 wt %
MeOAc/MeOH, MeOH 80 wt %
  Solubility (wt %): 0.250 wt %
MeOAc/MeOH, MeOH 100 wt %
  Solubility (wt %): 0.153 wt %
MeOAc:MeOH 0:100, 25° C.
  Concentration: 1210 µg/mL
  Concentration (wt %): 0.153 wt %
MeOAc:MeOH 20:80, 25° C.
  Concentration: 2220 µg/mL
  Concentration (wt %): 0.250 wt %
MeOAc:MeOH 35:65, 25° C.
  Concentration: 2850 µg/mL
  Concentration (wt %): 0.341 wt %
MeOAc:MeOH 50:50, 25° C.
  Concentration: 3650 µg/mL
  Concentration (wt %): 0.426 wt %
MeOAc:MeOH 65:35, 25° C.
  Concentration: 4230 µg/mL
  Concentration (wt %): 0.482 wt %
MeOAc:MeOH 80:20, 25° C.
  Concentration: 3630 µg/mL
  Concentration (wt %): 0.403 wt %
MeOAc:MeOH 100:0, 25° C.
  Concentration: 610 µg/mL
  Concentration (wt %): 0.065 wt %

## Cc1cn(-c2cc(NC(=O)c3ccc(C)c(Nc4nccc(-c5cccnc5)n4)c3)cc(C(F)(F)F)c2)cn1 [Nilotinib, nilotinib]
EtOAc:EtOH 0:100, 25° C.
  Concentration: 1690 µg/mL
  Concentration (wt %): 0.214 wt %
EtOAc:EtOH 15:85, 25° C.
  Concentration: 2380 µg/mL
  Concentration (wt %): 0.30 wt %
EtOAc:EtOH 40:60, 25° C.
  Concentration: 3400 µg/mL
  Concentration (wt %): 0.408 wt %
EtOAc:EtOH 55:45, 25° C.
  Concentration: 4690 µg/mL
  Concentration (wt %): 0.518 wt %
EtOAc:EtOH 70:30, 25° C.
  Concentration: 3390 µg/mL
  Concentration (wt %): 0.392 wt %
EtOAc:EtOH 85:15, 25° C.
  Concentration: 2030 µg/mL
  Concentration (wt %): 0.230 wt %
EtOAc:EtOH 100:0, 25° C.
  Concentration: 690 µg/mL
  Concentration (wt %): 0.076 wt %
MeOAc/MeOH, MeOH 0 wt %
  Solubility (wt %): 0.091 wt %
MeOAc/MeOH, MeOH 15 wt %
  Solubility (wt %): 0.496 wt %
MeOAc/MeOH, MeOH 30 wt %
  Solubility (wt %): 0.763 wt %
MeOAc/MeOH, MeOH 45 wt %
  Solubility (wt %): 0.962 wt %
MeOAc/MeOH, MeOH 60 wt %
  Solubility (wt %): 0.868 wt %
MeOAc/MeOH, MeOH 85 wt %
  Solubility (wt %): 0.486 wt %
MeOAc/MeOH, MeOH 100 wt %
  Solubility (wt %): 0.371 wt %
MeOAc:MeOH 0:100, 25° C.
  Concentration: 2940 µg/mL
  Concentration (wt %): 0.371 wt %
MeOAc:MeOH 15:85, 25° C.
  Concentration: 3940 µg/mL
  Concentration (wt %): 0.486 wt %
MeOAc:MeOH 40:60, 25° C.
  Concentration: 7320 µg/mL
  Concentration (wt %): 0.868 wt %
MeOAc:MeOH 55:45, 25° C.
  Concentration: 8310 µg/mL
  Concentration (wt %): 0.961 wt %
MeOAc:MeOH 70:30, 25° C.
  Concentration: 6760 µg/mL
  Concentration (wt %): 0.763 wt %
MeOAc:MeOH 85:15, 25° C.
  Concentration: 4510 µg/mL
  Concentration (wt %): 0.496 wt %
MeOAc:MeOH 100:0, 25° C.
  Concentration: 850 µg/mL
  Concentration (wt %): 0.091 wt %
